Test results reported in patent US10631537B2, “Disinfectant composition having residual biocidal properties” (LONZA LLC, priority 2016, dated 2020).

Experiments:
[1] = system: P. aeruginosa; experiment: Second screening: efficacy of dried film after abrasion (0 rub vs 12 dry rubs); format: cell-based; conditions: active 0.4%, film PVOH, about 30 mg; for Log10 Reduction, 12 dry Rubs: no re-inoculation between rubs
Description: (§1) First round of micro test was to evaluate the efficacy of the biocides against P. aeruginosa. About 30 mg of the biocide/polymer based formulation were coated on the one square inch area of a stainless steel coupon. The treated stainless steel coupons were left on the bench for air drying overnight. The dried stainless steel test samples were sent to a micro lab for efficacy testing against P. aeruginosa ATCC 15442 following a modified version of Residual Self-Sanitizing Activity on Hard, Non-Porous Surfaces (EPA Protocol #01-1A). […] Samples were inoculated with the test organism and held for a 5 minute contact time. Three replicates were tested for each sample. Second round of testing was to compare the efficacy after an abrasion process. About 30 mg of the test formulation was coated on the one square inch area of a stainless steel coupon. Samples were divided into two groups: one group had 0 rub, and the other group had 12 dry rubs. No re-inoculation was applied between rubs.

[2] = system: P. aeruginosa ATCC 15442; experiment: First screening: residual self-sanitizing activity of dried film on stainless steel coupon, no wearing (modified EPA Protocol #01-1A); format: cell-based; conditions: about 30 mg on one square inch, dried overnight, 5 minute contact time
Description: as §1, with “sample.” for “sample. Second round of testing was to compare the efficacy after an abrasion process. About 30 mg of the test formulation was coated on the one square inch area of a stainless steel coupon. Samples were divided into two groups: one group had 0 rub, and the other group had 12 dry rubs. No re-inoculation was applied between rubs.”

[3] = active concentration 0.4%, film PVOH

N=C(NCCCCCCNC(=N)NC(=N)Nc1ccc(Cl)cc1)NC(=N)Nc1ccc(Cl)cc1 [Chlorhexidine digluconate]
Log10 Reduction, 12 dry Rubs [1]: 5.04 log10
Log10 Reduction, No Rub [1]: 5.42 log10
Log reduction (with culture dilution), average ([2]; active concentration 1.0%, film PVOH): ≥4.85 log

Alkyldimethyl benzyl ammonium chlorides
Log10 Reduction, 12 dry Rubs [1]: 3.48 log10
Log10 Reduction, No Rub [1]: 3.56 log10
Log reduction (with culture dilution), average [2, 3]: 3.85 log

CCCCCCCCCCCCN(CCCN)CCCN [N,N-bis(3-aminopropyl) dodecylamine, N,N-bis(3-aminopropyl)dodecylamine]
Log10 Reduction, 12 dry Rubs [1]: 4.77 log10
Log10 Reduction, No Rub [1]: 5.22 log10
Log reduction (with culture dilution), average [2, 3]: ≥4.85 log
Log reduction (with culture dilution), average ([2]; active concentration 0.4%, film PVP): 4.05 log
